Assay results as given in article PMC5123277, “Cloning, functional expression and characterization of a bifunctional 3-hydroxybutanal dehydrogenase /reductase involved in acetone metabolism by Desulfococcus biacutus” (BMC Microbiology, 2016).

Test system: T1, Debia-MDR
T1 construct: gene DebiaDRAFT_04514; full-length, N-terminal His6-tag (pET100, tag kept), E. coli Rosetta 2 (DE3); monomer 38,272 Da predicted, approx. 41 kDa with tag; native about 170 kDa, homotetramer; forward primer […]; (N-terminus MAKMMKT by translation)
Assay: spectrophotometric NADH consumption at […] nm
Assay type: biochemical, Desulfococcus biacutus
Conditions: reduction direction, NADH co-substrate (0.1 mM in the general assay); 50 uM ZnCl2, 3 mM DTT, anoxic; general assay 25 mM MOPS pH 7.2, 30 °C

**Q.** With `CC(C)=O` [acetone] as the compound, how does the Km read?
**A.** 40 µM
